Read-outs that look alike come from different tables or passages of the source.
Experiments:
[1] = molecular target: Human Serum Albumin (HSA) site II (Homo sapiens, UniProt P02768); conditions: literature knowledge; cited from earlier work
[2] = molecular target: T1, Human Serum Albumin (HSA) (Homo sapiens, UniProt P02768); experiment: c-WaterLOGSY competition binding experiment, displacement of reference compound 6-CH3 Trp from HSA; parameters: purchased Sigma A-3782
Protocol: (§1) NMR Experiments. […] For each sample a reference spectrum and a ID WaterLOGSY spectrum were recorded. […] The 1st water selective 180° pulse was 25 milliseconds (ms) long. A weak rectangular PFG is applied during the entire length of the mixing time (1.5 seconds (s)). A short gradient recovery time of 2 ms was introduced at the end of the mixing time before the detection pulse. […] The gradient recovery time was 0.2 s. […] Prior to Fourier transformation the data were multiplied with an exponential function with a line broadening of 1 Hz.

[3] = molecular target: T1, Human Serum Albumin (HSA); experiment: One-dimensional WaterLOGSY NMR spectra of methyl-tryptophan derivatives with HSA; assay type: binding; parameters: purchased Sigma A-3782; conditions: 50 μM compound, 5 μM HSA, PBS pH 7.4, 293 K
Protocol: FIG. 2. […] Positive and negative signals identify HSA binding and noninteracting molecules, respectively.
Diazepam was purchased from Carlo Erba. The NMR samples were in phosphate buffered saline (PBS) buffer (Sigma) pH 7.4. D2O was added to the solutions (8% final concentration) for the lock signal.
as §1
Therefore in an effort to identify a potential reference molecule, three methyl-tryptophan derivatives, namely 5-CH3, 6-CH3, and 7-CH3 Trp, were selected.

[4] = molecular target: T1, Human Serum Albumin (HSA); experiment: biochemical; conditions: for Interaction with HSA by ITC binding heat effects: 30 μM protein, 1.5 mM ligand
Protocol: FIG. 3. Isothermal titration calorimetry (ITC) data measured on the binding of tryptophan analogues to HSA. […] Dilution heats were collected in blank titrations and were subtracted from the data. […] The solid line represents a calculated curve using the best-fit parameters obtained by a nonlinear least-squares fit to the measured data.
ITC Experiments. […] Heats of dilution were measured in blank titrations by injecting the […] into the buffer used in the particular experiment and were subtracted from the binding heats. Thermodynamic parameters were determined by non-linear least squares methods using routines included in the Origin software package (MicroCal).

T1 sequence (P02768 25-609): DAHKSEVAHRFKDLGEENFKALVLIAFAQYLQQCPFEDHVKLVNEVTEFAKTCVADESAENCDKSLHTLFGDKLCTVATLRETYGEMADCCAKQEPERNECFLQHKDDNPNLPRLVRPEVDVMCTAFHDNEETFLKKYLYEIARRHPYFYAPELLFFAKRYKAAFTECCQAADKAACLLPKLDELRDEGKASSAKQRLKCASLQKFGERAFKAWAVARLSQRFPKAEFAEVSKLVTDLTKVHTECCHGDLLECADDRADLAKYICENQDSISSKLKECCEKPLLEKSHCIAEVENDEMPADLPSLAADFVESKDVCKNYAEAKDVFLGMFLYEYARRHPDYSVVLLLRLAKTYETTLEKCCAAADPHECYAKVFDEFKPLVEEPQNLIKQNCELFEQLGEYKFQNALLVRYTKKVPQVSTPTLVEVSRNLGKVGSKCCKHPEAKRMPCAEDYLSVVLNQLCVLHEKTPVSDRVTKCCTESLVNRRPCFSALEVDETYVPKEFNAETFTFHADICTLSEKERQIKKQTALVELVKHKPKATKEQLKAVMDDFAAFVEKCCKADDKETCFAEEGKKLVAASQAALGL
Human Serum Albumin (HSA) site II, sequence (P02768 25-609): as above

## N[C@@H](Cc1c[nH]c2ccccc12)C(=O)O [tryptophan]
[1]
  Binding site on HSA: binds also on site II of HSA

## Cc1cccc2c(CC(N)C(=O)O)c[nH]c12 (racemic) [7-CH3 Trp, 7-CH3-D,L-Trp]
[2]; 10 μM competitor, 50 μM 6-CH3 D,L Trp, 5 μM HSA
  Signal intensity change of the 6-CH3 Trp reference WaterLOGSY signal in presence of the competitor: No signal intensity change
[3]
  Interaction with HSA by sign of WaterLOGSY signal (positive = binding, negative = noninteracting): do not interact with the protein
[4]; PBS, 298 K
  Interaction with HSA by ITC binding heat effects: No net binding heat effects

## Cc1ccc2c(CC(N)C(=O)O)c[nH]c2c1 (racemic) [6-CH3 Trp, 6-CH3-D,L-Trp]
[3]
  Interaction with HSA by sign of WaterLOGSY signal (positive = binding, negative = noninteracting): ligand for HSA
[4]
  Kd: 37 µM
  association binding constant (KB): 2.7±0.2 10^4 Mol^−1
[4]; PBS, 298 K
  Interaction with HSA by ITC binding heat effects: negative binding heats were observed
[4]; ITC, 298 K, PBS
  ΔH^obs: 1.9 ± 0.1 kcal/mol
  ΔS: 13.79 cal/(mol K)

## Cc1ccc2[nH]cc(CC(N)C(=O)O)c2c1 (racemic) [5-CH3 Trp, 5-CH3-D,L-Trp]
[3]
  Interaction with HSA by sign of WaterLOGSY signal (positive = binding, negative = noninteracting): do not interact with the protein
[4]; PBS, 298 K
  Interaction with HSA by ITC binding heat effects: No net binding heat effects

## OC[C@H]1O[C@@](CO)(O[C@H]2O[C@H](CO)[C@@H](O)[C@H](O)[C@H]2O)[C@@H](O)[C@@H]1O [Sucrose]
[2]
  Signal intensity change of the 6-CH3 Trp reference WaterLOGSY signal in presence of the competitor: No signal intensity change
